{"source": "patent US20040077611A1", "about": "“Triple therapy of angiotensin converting enzyme inhibitor epoxy-steroidal aldosterone antagonist and diuretic or digoxin for treatment of cardiovascular disease” (G.D. Searle & Co., priority 1999, published 2004)", "key": {"[1]": {"system": "patients alive at Day 3 with Killip class >I", "conditions": "patients randomized to lisinopril; ACE-I treatment stopped at 42 days; cited from earlier work"}, "[2]": {"test": "Physical stability of solid state forms of eplerenone", "assay_type": "physicochemical", "conditions": "temperatures below the enantiotropic transition temperature"}, "[3]": {"system": "humans", "test": "Effects of eplerenone pharmaceutical compositions in humans after oral administration", "assay_type": "in vivo"}, "[4]": {"test": "Solubility of eplerenone in crystallization solvents", "assay_type": "physicochemical", "conditions": "organic crystallization solvent or mixture of solvents, room temperature"}, "[5]": {"system": "patients with stable NYHA Class II-IV heart failure", "conditions": "human, in vivo"}, "[6]": {"system": "patients with stable NYHA Class II-IV heart failure", "test": "Clinical trial of eplerenone added to ACE inhibitor and loop diuretic in heart failure (Biological Evaluation I)", "conditions": "for plasma renin activity (PRA): 12 weeks of treatment, FIG. 28"}, "[7]": {"test": "Dissolution rate of unformulated solid state forms of eplerenone", "assay_type": "physicochemical", "conditions": "temperatures below the enantiotropic transition temperature"}, "[8]": {"system": "patients with severe HF (NYHA Class IV)", "conditions": "cited from earlier work"}, "[9]": {"system": "patients with clinical evidence of HF at any time after an AMI", "conditions": "cited from earlier work; for risk reduction in all cause mortality: compared to placebo (p=0.002)"}, "[10]": {"system": "patients with impaired ejection fraction post AMI", "conditions": "cited from earlier work"}, "[11]": {"system": "patients with LV dysfunction 2 to 6 days following MI", "conditions": "cited from earlier work"}, "[12]": {"system": "myocardial fibrosis in animal models", "conditions": "cited from earlier work"}, "[13]": {"system": "patients with severe HF (NYHA Class III or IV)", "conditions": "cited from earlier work"}, "[14]": {"system": "patients afflicted with congestive heart failure", "conditions": "cited from earlier work"}, "[15]": {"conditions": "humans, over about 12 to 24 hours after ingestion of the composition"}}, "note": "Read-outs that look alike come from different tables or passages of the source.", "data": [{"smiles": "NCCCC[C@H](N[C@@H](CCc1ccccc1)C(=O)O)C(=O)N1CCC[C@H]1C(=O)O", "note": "[lisinopril]", "values": [{"measurement": "first-year mortality", "setting": "[1]", "value": 22, "unit": "%"}]}, {"smiles": "COC(=O)[C@@H]1CC2=CC(=O)CC[C@]2(C)[C@@]23O[C@@H]2C[C@@]2(C)[C@@H](CC[C@@]24CCC(=O)O4)[C@H]13", "note": "[Form L]", "values": [{"measurement": "physical stability relative to Form H", "setting": "[2]", "value": "greater physical stability"}]}, {"smiles": "COC(=O)[C@@H]1CC2=CC(=O)CC[C@]2(C)[C@@]23O[C@@H]2C[C@@]2(C)[C@@H](CC[C@@]24CCC(=O)O4)[C@H]13", "note": "[eplerenone, Pregn-4-ene-7,21-dicarboxylic acid, 9,11-epoxy-17-hydroxy-3-oxo-, γ-lactone, methyl ester, (7^α, 11^α, 17^α)-]", "values": [{"measurement": "average decrease in diasystolic blood pressure", "setting": "[3]; [15]", "value": "at least 5%"}, {"measurement": "average increase in blood serum aldosterone concentrations", "setting": "[3]; [15]", "value": "at least 50%"}, {"measurement": "average increase in blood serum renin concentration", "setting": "[3]; [15]", "value": "at least 10%"}, {"measurement": "urinary log10 (sodium/potassium) ratio", "setting": "[3]; [15]", "value": "increase"}, {"measurement": "efficacy of the required daily dosage, once-a-day relative to twice-a-day administration", "setting": "[3]; in vivo", "value": "does not appear to materially differ"}, {"measurement": "solubility", "setting": "[4]", "value": "5 to 200", "unit": "mg/mL"}, {"measurement": "testosterone levels", "setting": "[5]", "value": "lack of effect"}, {"measurement": "plasma renin activity (PRA)", "setting": "[6]", "value": "significantly elevated"}, {"measurement": "reduction in BNP", "setting": "[6]; eplerenone at 25 mg and 100 mg, all patients, FIG. 29", "value": "highly significant"}, {"measurement": "urinary aldosterone excretion, increase from baseline", "setting": "[6]; eplerenone doses of 50 and 100 mg, 12 week visit", "value": "Greater increases"}]}, {"smiles": "COC(=O)[C@@H]1CC2=CC(=O)CC[C@]2(C)[C@@]23O[C@@H]2C[C@@]2(C)[C@@H](CC[C@@]24CCC(=O)O4)[C@H]13", "note": "[Form H]", "values": [{"measurement": "dissolution rate relative to unformulated Form L", "setting": "[7]", "value": "approximately 30%"}]}, {"smiles": "CCOC(=O)[C@H](CCc1ccccc1)N[C@@H](C)C(=O)N1CCC[C@H]1C(=O)O", "note": "[enalapril]", "values": [{"measurement": "reduction of mortality at one year", "setting": "[8]; enalapril plus diuretics compared to placebo plus diuretics", "value": 31, "unit": "%"}, {"measurement": "mortality", "setting": "[8]; group with baseline aldosterone plasma levels above the median", "value": "reduced"}, {"measurement": "mortality", "setting": "[8]; group with baseline aldosterone plasma levels below the median", "value": "no difference from placebo"}]}, {"smiles": "CCOC(=O)[C@H](CCc1ccccc1)N[C@@H](C)C(=O)N1[C@H](C(=O)O)C[C@@H]2CCC[C@@H]21", "note": "[ramipril]", "values": [{"measurement": "risk reduction in all cause mortality", "setting": "[9]; AIRE", "value": 27, "unit": "%"}, {"measurement": "reduction in the risk of developing severe resistant HF", "setting": "[9]; AIRE, compared to placebo (p=0.017)", "value": 23, "unit": "%"}, {"measurement": "risk reduction in all cause mortality", "setting": "[9]; AIREX long-term (three year) follow-up", "value": 36, "unit": "%"}, {"measurement": "ventricular dilatation and systolic dysfunction", "setting": "[10]", "value": "prevented ventricular dilatation and further decline of systolic dysfunction"}]}, {"smiles": "CCOC(=O)[C@H](CCc1ccccc1)N[C@@H](C)C(=O)N1[C@H](C(=O)O)C[C@H]2CCCC[C@@H]21", "note": "[trandolapril]", "values": [{"measurement": "relative reduction in the risk of death", "setting": "[11]; compared to placebo (p=0.001)", "value": 18, "unit": "%"}, {"measurement": "reduction in the risk of progression to severe HF", "setting": "[11]; compared to placebo (p=0.003)", "value": 29, "unit": "%"}]}, {"smiles": "CC(=O)S[C@@H]1CC2=CC(=O)CC[C@]2(C)[C@H]2CC[C@@]3(C)[C@@H](CC[C@@]34CCC(=O)O4)[C@H]12", "note": "[spironolactone]", "values": [{"measurement": "ventricular dilatation and systolic dysfunction", "setting": "[10]", "value": "prevented ventricular dilatation and further decline of systolic dysfunction"}, {"measurement": "myocardial fibrosis", "setting": "[12]; Klug et al", "value": "prevents myocardial fibrosis"}, {"measurement": "fibrosis", "setting": "[12]; irrespective of the development of left ventricular hypertrophy and the presence of hypertension, Brilla et al", "value": "prevent fibrosis"}, {"measurement": "reduction in mortality compared to placebo", "setting": "[13]; as restated", "value": "> 30", "unit": "%"}, {"measurement": "median increase in serum potassium concentration", "setting": "[13]; compared to patients treated with placebo", "value": "statistically but not clinically significant"}, {"measurement": "risk reduction for all cause mortality", "setting": "[13]; spironolactone 25 mg daily added to standard therapy vs standard therapy plus placebo (p<0.001)", "value": 30, "unit": "%"}, {"measurement": "lower frequency of hospitalization for worsening HF", "setting": "[13]; vs placebo patients", "value": 35, "unit": "%"}, {"measurement": "clinical outcome", "setting": "[14]; co-therapy of spironolactone and enalapril", "value": "Clinical improvements"}, {"measurement": "patients in whom co-therapy was highly effective", "setting": "[14]; spironolactone coadministered with an ACE inhibitor", "value": "13 of 16"}, {"measurement": "plasma renin activity (PRA)", "setting": "[6]", "value": "significantly elevated"}, {"measurement": "testosterone levels", "setting": "[6]; males", "value": "significant increase"}]}]}
